Assay results: US8617614B2, “Sustained release preparation for tissue regeneration therapy” (Ono Pharmaceutical Co., Ltd., priority 2006, dated 2013)

Tested on: hippocampal CA1 region nerve cells
Experiment: Number of nerve cells in hippocampal CA1 region, rat 4-VO model (Nissl staining)
Assay type: in vivo
Conditions: for number of hippocampal CA1 pyramidal nerve cells relative to the group given the medium (Test Group 3): rat 4-VO Test 1, day 42, s.c. twice daily, present drug 10, ornoprostil 0.1, PGE1•αCD 1.5 and 3 mg/kg

Row | Compound | number of hippocampal CA1 pyramidal nerve cells relative to the group given the medium (Test Group 3) | Number of nerve cells per unit length (count/mm) Left (L) (rat 4-VO Test 1, Test Group 6: 1.5 mg/kg (as PGE1) s.c. twice daily 42 days)
1 | CCCC[C@H](C)C[C@H](O)/C=C/[C@H]1[C@H](O)CC(=O)[C@@H]1CC(=O)CCCCC(=O)OC [ornoprostil, reference compound] | significant increase | –
2 | CCCCC[C@H](O)/C=C/[C@H]1[C@H](O)CC(=O)[C@@H]1CCCCCCC(=O)O [PGE1•αCD, prostaglandin E1, reference compound] | significant increase | 105.7 ± 24.0 count/mm
